Assay results: ChEMBL document CHEMBL4350991, “Design, synthesis, and biological evaluation of rutacecarpine derivatives as multitarget-directed ligands for the treatment of Alzheimer's disease” (Eur J Med Chem, 2019)
Calls of active or inactive are those of the source. No cut-off for these calls is given here.

What was measured:
Acetylcholinesterase = Acetylcholinesterase (Electrophorus electricus, UniProt O42275); assay type: ADME
Description: Inhibition of electric eel AChE using acetylthiocholine iodide as substrate preincubated for 30 mins followed by substrate addition and measured after 30 mins by Ellman's method

[1] = target: Cholinesterase (Equus caballus) (UniProt P81908); assay: Mixed-type inhibition of equine serum BuChE up to 8 uM using varying levels of S-butyrylthiocholine iodide as substrate preincubated for 30 mins followed by substrate addition and measured after 30 mins by Lineweaver-Burk plot analysis
Chain of Cholinesterase (Equus caballus) (P81908 whole entry): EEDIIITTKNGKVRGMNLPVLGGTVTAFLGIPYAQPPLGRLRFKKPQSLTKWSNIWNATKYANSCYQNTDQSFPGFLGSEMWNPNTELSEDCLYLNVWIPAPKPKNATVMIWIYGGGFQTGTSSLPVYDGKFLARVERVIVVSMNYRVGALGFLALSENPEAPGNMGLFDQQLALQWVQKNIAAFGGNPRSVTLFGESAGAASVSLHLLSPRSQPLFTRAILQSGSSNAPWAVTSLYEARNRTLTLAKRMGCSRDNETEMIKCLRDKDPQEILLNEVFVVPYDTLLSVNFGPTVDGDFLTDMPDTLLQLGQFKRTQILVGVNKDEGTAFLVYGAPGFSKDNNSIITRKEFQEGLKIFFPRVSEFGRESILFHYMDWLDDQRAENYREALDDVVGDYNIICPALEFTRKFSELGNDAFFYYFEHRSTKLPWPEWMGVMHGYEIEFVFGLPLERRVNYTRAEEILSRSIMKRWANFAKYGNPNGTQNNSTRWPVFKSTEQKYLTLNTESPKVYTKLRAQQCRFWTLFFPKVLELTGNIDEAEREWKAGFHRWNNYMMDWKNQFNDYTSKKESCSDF

SH-SY5Y [2] = assay: Neuro-antioxidant activity against H2O2-induced oxidative stress in human SH-SY5Y cells assessed as intracellular ROS generation at 1 uM preincubated for 6 hrs followed by H2O2 challenge for 24 hrs by DCFH-DA staining-based fluorescence assay (reference value: 119.61 +/- 5.269%); assay type: functional
SH-SY5Y [3] = assay: Neuro-antioxidant activity against H2O2-induced oxidative stress in human SH-SY5Y cells assessed as intracellular ROS generation at 5 uM preincubated for 6 hrs followed by H2O2 challenge for 24 hrs by DCFH-DA staining-based fluorescence assay (reference value: 119.61 +/- 5.269%); assay type: functional
SH-SY5Y [4] = assay: Neuro-antioxidant activity against H2O2-induced oxidative stress in human SH-SY5Y cells assessed as intracellular ROS generation at 10 uM preincubated for 6 hrs followed by H2O2 challenge for 24 hrs by DCFH-DA staining-based fluorescence assay (reference value: 119.61 +/- 5.269%); assay type: functional
SH-SY5Y [5] = assay: Neuro-antioxidant activity against H2O2-induced oxidative stress in human SH-SY5Y cells assessed as intracellular ROS generation at 20 uM preincubated for 6 hrs followed by H2O2 challenge for 24 hrs by DCFH-DA staining-based fluorescence assay (reference value: 119.61 +/- 5.269%); assay type: functional
SH-SY5Y [6] = assay: Neuro-antioxidant activity in human SH-SY5Y cells assessed as H2O2-induced increase in intracellular ROS generation at 50 uM preincubated for 6 hrs followed by H2O2 challenge for 24 hrs by DCFH-DA staining-based fluorescence assay relative to control (reference value: 119.61 +/- 5.269%); assay type: functional
[7] = target: Amyloid-beta precursor protein (Homo sapiens) (UniProt P05067); assay: Inhibition of self-mediated amyloid beta (1 to 42) (unknown origin) aggregation assessed as short and thin fibril formation at 100 uM incubated for 48 hrs by transmission electron microscopic method
Chain of Amyloid-beta precursor protein (Homo sapiens) (P05067 whole entry): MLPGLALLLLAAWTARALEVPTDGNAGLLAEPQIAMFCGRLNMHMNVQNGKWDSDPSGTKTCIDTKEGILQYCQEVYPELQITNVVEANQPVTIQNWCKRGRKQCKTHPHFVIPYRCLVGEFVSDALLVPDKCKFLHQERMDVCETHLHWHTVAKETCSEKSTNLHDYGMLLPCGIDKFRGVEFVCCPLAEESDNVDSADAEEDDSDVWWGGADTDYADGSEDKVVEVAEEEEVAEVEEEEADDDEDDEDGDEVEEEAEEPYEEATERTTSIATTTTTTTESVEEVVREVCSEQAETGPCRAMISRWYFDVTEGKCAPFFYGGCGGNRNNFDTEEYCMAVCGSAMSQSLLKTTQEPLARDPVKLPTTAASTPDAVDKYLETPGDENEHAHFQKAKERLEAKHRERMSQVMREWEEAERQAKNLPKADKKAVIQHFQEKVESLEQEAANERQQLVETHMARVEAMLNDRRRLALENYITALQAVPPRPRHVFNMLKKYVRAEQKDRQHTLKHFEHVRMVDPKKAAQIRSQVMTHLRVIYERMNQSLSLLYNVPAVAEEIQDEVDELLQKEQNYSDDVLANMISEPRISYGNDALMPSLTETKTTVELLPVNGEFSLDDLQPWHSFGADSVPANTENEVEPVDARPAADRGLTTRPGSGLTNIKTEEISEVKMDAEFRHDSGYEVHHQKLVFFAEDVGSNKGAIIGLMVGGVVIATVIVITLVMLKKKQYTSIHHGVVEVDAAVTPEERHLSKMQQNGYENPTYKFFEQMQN

[8] = Metal chelating activity assessed as compound-Cu2+ complex formation at 20 uM in presence of CuCl2 after 1 hr by UV-visible spectrophotometric analysis
[9] = Metal chelating activity assessed as compound-Zn2+ complex formation at 20 uM in presence of ZnCl2 after 1 hr by UV-visible spectrophotometric analysis
[10] = Metal chelating activity assessed as compound-Fe2+ complex formation at 20 uM in presence of FeSO4 after 1 hr by UV-visible spectrophotometric analysis
[11] = Metal chelating activity assessed as compound-Al3+ complex formation at 20 uM in presence of AlCl3 after 1 hr by UV-visible spectrophotometric analysis
[12] = Metal chelating activity assessed as compound-Mg2+ complex formation at 20 uM in presence of MgCl2 after 1 hr by UV-visible spectrophotometric analysis
[13] = Metal chelating activity assessed as compound-Ca2+ complex formation at 20 uM in presence of CaCl2 after 1 hr by UV-visible spectrophotometric analysis
[14] = n-Octanol-phosphate buffer partition co-efficient, log P of compound at pH 7.4 incubated for 48 hrs by UV spectrophotometry-based shake-flask method; assay type: physicochemical
PC-12 [15] = assay: cells; assay type: functional; details: Rattus norvegicus
PC-12 [16] = assay: cells; assay type: functional; details: Rattus norvegicus; remark: listed apart in the source
PC-12 [17] = assay: cells; assay type: functional; details: Rattus norvegicus; remark: listed apart in the source
PC-12 [18] = assay: cells; assay type: functional; details: Rattus norvegicus; remark: listed apart in the source
PC-12 [19] = assay: cells; assay type: functional; details: Rattus norvegicus; remark: listed apart in the source
SH-SY5Y [20] = assay: Neuroprotective activity against amyloid beta (1 to 42 residues) induced cytotoxicity in human SH-SY5Y cells assessed as cell viability at 10 uM pretreated for 3 hrs followed by amyloid beta(1-42) challenge measured after 24 hrs by MTT assay (reference value: 37.53 +/- 1.4%); assay type: functional; details: read-out: Activity
SH-SY5Y [21] = assay: Neuroprotective activity against amyloid beta (1 to 42 residues) induced cytotoxicity in human SH-SY5Y cells assessed as cell viability at 30 uM pretreated for 3 hrs followed by amyloid beta(1-42) challenge measured after 24 hrs by MTT assay (reference value: 37.53 +/- 1.4 %); assay type: functional; details: read-out: Activity
SH-SY5Y [22] = assay: Neuroprotective activity against amyloid beta (1 to 42 residues) induced cytotoxicity in human SH-SY5Y cells assessed as cell viability at 50 uM pretreated for 3 hrs followed by amyloid beta(1-42) challenge measured after 24 hrs by MTT assay (reference value: 37.53 +/- 1.4 %); assay type: functional; details: read-out: Activity
SH-SY5Y [23] = assay: Neuroprotective activity against H2O2-induced cytotoxicity in human SH-SY5Y cells assessed as cell viability at 10 uM pretreated for 3 hrs followed by H2O2 challenge measured after 24 hrs by MTT assay (reference value: 42.69 +/- 0.8%); assay type: functional; details: read-out: Activity
SH-SY5Y [24] = assay: Neuroprotective activity against H2O2-induced cytotoxicity in human SH-SY5Y cells assessed as cell viability at 30 uM pretreated for 3 hrs followed by H2O2 challenge measured after 24 hrs by MTT assay (reference value: 42.69 +/- 0.8%); assay type: functional; details: read-out: Activity
SH-SY5Y [25] = assay: Neuroprotective activity against H2O2-induced cytotoxicity in human SH-SY5Y cells assessed as cell viability at 50 uM pretreated for 3 hrs followed by H2O2 challenge measured after 24 hrs by MTT assay (reference value: 42.69 +/- 0.8%); assay type: functional; details: read-out: Activity
[26] = Metal chelating activity assessed as mole fraction of compound required to show 1:1 stoichiometry for compound-Cu2+ complex at 20 uM after 1 hr by UV-Vis absorption spectrophotometric method
PC-12 [27] = assay: Neuroprotective activity against H2O2 induced cytotoxicity in rat PC12 cells assessed as increase in cell viability pretreated for 3 hrs followed by H2O2 challenge measured after 24 hrs by MTT assay; assay type: functional, cell-based
SH-SY5Y [28] = assay: Neuroprotective activity against amyloid beta (1 to 42 residues) induced cytotoxicity in human SH-SY5Y cells assessed as increase in cell viability pretreated for 3 hrs followed by amyloid beta (1 to 42 residues) challenge measured after 24 hrs by MTT assay; assay type: functional, cell-based
SH-SY5Y [29] = assay: Neuroprotective activity against H2O2-induced cytotoxicity in human SH-SY5Y cells assessed as increase in cell viability pretreated for 3 hrs followed by H2O2 challenge measured after 24 hrs by MTT assay; assay type: functional, cell-based
Cholinesterase = Cholinesterase (Equus caballus, UniProt P81908)
Chain of Cholinesterase (P81908 whole entry): as the sequence (P81908 whole entry) above
Description: Inhibition of equine serum BuChE using S-butyrylthiocholine iodide as substrate preincubated with enzyme for 30 mins followed by substrate addition and measured after 30 mins by Ellman's method

Chain of Acetylcholinesterase (O42275 whole entry): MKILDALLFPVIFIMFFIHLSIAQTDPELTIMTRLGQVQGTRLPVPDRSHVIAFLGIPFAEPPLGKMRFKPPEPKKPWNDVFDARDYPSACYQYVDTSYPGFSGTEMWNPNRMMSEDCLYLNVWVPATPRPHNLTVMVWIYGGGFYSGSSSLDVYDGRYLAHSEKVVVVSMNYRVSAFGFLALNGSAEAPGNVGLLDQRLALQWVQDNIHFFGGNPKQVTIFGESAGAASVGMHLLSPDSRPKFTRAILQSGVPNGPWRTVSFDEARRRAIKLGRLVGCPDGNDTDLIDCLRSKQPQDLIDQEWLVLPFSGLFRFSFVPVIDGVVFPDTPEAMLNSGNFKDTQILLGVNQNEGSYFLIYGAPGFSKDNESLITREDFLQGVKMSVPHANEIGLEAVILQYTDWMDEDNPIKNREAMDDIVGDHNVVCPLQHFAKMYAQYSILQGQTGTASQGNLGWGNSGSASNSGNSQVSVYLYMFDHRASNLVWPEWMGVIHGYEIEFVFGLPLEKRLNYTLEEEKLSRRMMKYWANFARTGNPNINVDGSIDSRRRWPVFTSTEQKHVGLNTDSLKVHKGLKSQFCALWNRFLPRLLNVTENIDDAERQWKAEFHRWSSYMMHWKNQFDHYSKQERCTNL

O=c1c2cc(NS(=O)(=O)c3ccccc3OC(F)(F)F)ccc2nc2n1CCc1c-2[nH]c2ccccc12
IC50 (Acetylcholinesterase): > 100 µM | inhibition [1]: Active | Activity (SH-SY5Y [2]): 83.17% | Activity (SH-SY5Y [3]): 84.23% | Activity (SH-SY5Y [4]): 82.464% | Activity (SH-SY5Y [5]): 105.494% | Activity (SH-SY5Y [6]): 98.502% | inhibition [7]: Active | Activity [8]: Active | Activity [9]: inactive | Activity [10]: inactive | Activity [11]: inactive | Activity [12]: inactive | Activity [13]: inactive | logD at 48 h [14]: 3.62 | viability at 1 µM (PC-12 [15]): 44.3% | viability at 5 µM (PC-12 [16]): 45.3% | viability at 10 µM (PC-12 [17]): 59.7% | viability at 30 µM (PC-12 [18]): 59.9% | viability at 50 µM (PC-12 [19]): 63.8% | viability at 10 µM (SH-SY5Y [20]): 47.9% | viability at 30 µM (SH-SY5Y [21]): 57.6% | viability at 50 µM (SH-SY5Y [22]): 64.2% | viability at 10 µM (SH-SY5Y [23]): 53.9% | viability at 30 µM (SH-SY5Y [24]): 61.7% | viability at 50 µM (SH-SY5Y [25]): 61.9% | Activity [26]: 1.1 molar ratio | Activity (PC-12 [27]): Dose-dependent effect | Activity (SH-SY5Y [28]): Dose-dependent effect | Activity (SH-SY5Y [29]): Dose-dependent effect | IC50 (Cholinesterase): 3.6 µM
